Read-outs that look alike come from different tables or passages of the source.
Tested on: SARS-CoV-2
Assay: microbe, parasite or virus in culture
Format: cell-based
[1] = Severe acute respiratory syndrome coronavirus 2, 120 h
[2] = confluence of SARS-CoV-2 infected VeroE6-EGFP cells after test compound treatment compared to control wells, 5 days

Compound	Maximum confluence reached (%) (5 days)	further results
CCCCOCCOc1ccc(-c2ccc3c(c2)C=C(C(=O)Nc2ccc([S@@+]([O-])Cc4cncn4CCC)cc2)CCCN3CC(C)C)cc1 [compound 65, (-)-(S)-8-[4-(2-Butoxyethoxy)phenyl]-1-isobutyl-N-[4-(1-propyl-1H-imidazol-5-ylmethylsulfinyl)phenyl]-1,2,3,4-tetrahydro-1-benzazocine-5-carboxamide]	70.92	IC50 (Severe acute respiratory syndrome coronavirus 2, 120 h, half maximal concentration able to recover the cytopathic effect of infection, VeroE6-EGFP cells, 0.01 MOI, 5 days, 8 concentrations, read-out: IC50): 55 µM
CNCc1ccc(-c2cc(-c3nc(-c4ccc(S(=O)(=O)C(C)C)cc4)cnc3N)on2)cc1 [compound 34, 3-[3-[4-[(Methylamino)methyl]phenyl]-1,2-oxazol-5-yl]-5-[4-(propan-2-ylsulfonyl)phenyl]pyrazin-2-amine]	99.21	
Cn1c(Nc2ccc(C(F)(F)F)cc2)nc2cc(Oc3ccnc(-c4nc(C(F)(F)F)c[nH]4)c3)ccc21 [compound 70, 1-Methyl-N-[4-(trifluoromethyl)phenyl]-5-[2-[4-(trifluoromethyl)-1H-imidazol-2-yl]pyridin-4-yloxy]-1H-benzimidazol-2-amine]	44.1	
CN(C)c1cccc(-c2c3c(=O)n(-c4ccccc4Cl)[nH]c3cc(=O)n2C)c1 [compound 13, 2-(2-Chlorophenyl)-4-[3-(dimethylamino)phenyl]-5-methyl-1H-pyrazolo[4,3-c]pyridine-3,6(2H,5H)-dione]	101.52	IC50 [1]: 7.57 µM
C[C@H]1CCC/C=C/[C@@H]2C[C@H](O)C[C@H]2[C@H](O)/C=C/C(=O)O1 (relative stereo) [compound 47, (1R,2S,7S,13S,15S)-2,15-Dihydroxy-7-methyl-6-oxabicyclo[11.3.0]hexadeca-3(E),11(E)-dien-5-one [1S-(1R*,2E,6R*,10E,11aR*,13R*,14a S*)]-1,6,7,8,9,11a,12,13,14,14a-Decahydro-1,13-dihydroxy-6-methyl-4H-cyclopent[f]oxacyclotridecin-4-one]		Emax (Severe acute respiratory syndrome coronavirus 2, 120 h, 5 days, read-out: Maximum confluence reached (%)): 122%
O=C(c1c2ccccc2cc2ccccc12)N1CCC(N2CCC[C@@H](C(=O)N3CCOCC3)C2)CC1 [compound 81, 1-[1'-(Anthracen-9-ylcarbonyl)-1,4'-bipiperidin-3(R)-yl]-1-(4-morpholinyl)methanone]		Maximum confluence reached (%) [2]: 51%
CC1=NN(c2ccc(C)c(C)c2)C(=O)/C1=N\Nc1cccc(-c2cccc(C(=O)O)c2)c1O [compound 37, 3'-[2(Z)-[1-(3,4-Dimethylphenyl)-3-methyl-5-oxo-4,5-dihydro-1H-pyrazol-4-ylidene]hydrazino]-2'-hydroxybiphenyl-3-carboxylic acid]	63.17	IC50 [1]: 58.1 µM
Cn1nc(C(C)(C)C)cc1C(=O)N[C@@H](Cc1cccc(Cl)c1)C(=O)NCC#N [compound 63, 3-tert-butyl-N-{(1S)-1-(3-chlorobenzyl)-2-[(cyanomethyl)amino]-2-oxoethyl}-1-methyl-1H-pyrazole-5-carboxamide]	96.18	
COc1cc2c(NC3CCN(C(C)C)CC3)nc(N3CCC(F)(F)CC3)nc2cc1OCCCN1CCCC1 [compound 95, 2-(4,4-Difluoropiperidin-1-yl)-6-methoxy-N-[1-(propan-2-yl)piperidin-4-yl]-7-[3-(pyrrolidin-1-yl)propoxy]quinazolin-4-amine]	31.06	
CC1(N2CCC(n3c([C@@H]4CCCNC4)nc4ccccc43)CC2)CCCCCCC1 [compound 51, 1-[1-(1-Methylcyclooctyl)piperidin-4-yl]-2-[3(R)-piperidinyl]-1H-benzimidazole]	57.77	
Nc1nc(N)c2nc(CNc3ccc(C(=O)N[C@@H](CCC(=O)O)C(=O)O)cc3)cnc2n1 [compound 10, N-[4-(2,4-diamino-6-pteridinylmethylamino)benzolyl]-L-glutamic acid]	72.54	
Cc1cccc(Nc2nc(-c3ccncc3)cs2)c1 [compound 85, N-(3-Methylphenyl)-4-(4-pyridyl)thiazol-2-amine]	47.81	
Cc1cc(O[C@@H](CCC(F)(F)F)c2ccc(C(=O)NCCC(=O)O)cc2)cc(C)c1-c1ccc(C(C)(C)C)cc1 [compound 57, N-(4-[(1S)-1-[(4'-tert-Butyl-2,6-dimethylbiphenyl-4-yl)oxy]-4,4,4-trifluorobutyl]benzoyl)-beta-alanine]	39.53	
CC(C)(O)CNc1ncc(-c2ccnc(Nc3ccnc(Cl)c3)n2)c(CC2CC2)n1 [compound 60, 1-[[2-[(2-chloro-4-pyridinyl)amino]-4'-(cyclopropylmethyl) [4,5'-bipyrimidin]-2'-yl]amino]-2-methyl-2-propanol]	45.62	
COc1ccc2cc1Oc1ccc(cc1)C[C@H]1c3cc(c(OC)cc3CCN1C)Oc1c(OC)c(OC)cc3c1[C@H](C2)N(C)CC3 [compound 79, (1beta)-(S,S)-6,6',7,12-Tetramethoxy-2,2'-dimethylberbaman]	99.64	
(1R,2S,3R)-3-(6-Amino-9H-purin-9-yl)-1,2-cyclopentanediol [compound 75]		Maximum confluence reached (%) [2]: 33.14%; IC50 (half maximal concentration able to recover the cytopathic effect of infection, VeroE6-EGFP cells, 0.01 MOI, 5 days, 8 concentrations, read-out: IC50): 0.36 µM

Source: patent EP4000606A1, “COMPOUNDS FOR CORONAVIRUS INFECTION TREATMENT AND/OR PREVENTION” (priority 2020, dated 2022)
